# Where two headings read alike, the source gives them in different places.
# Key:
# CYP3A4 = system: CYP3A4; set-up: method as in PMID 28967981; conditions: cited from earlier work
# [1] = system: EGFR‐mutant advanced non‐squamous NSCLC; assay: Antitumor response (RECIST 1.1), PFS and OS; conditions: for median PFS: Kaplan‐Meier
# Source text: Other endpoints included objective response rate (ORR) and disease control rate (DCR), progression‐free survival (PFS), and overall survival (OS). […] Combination therapy was continued until the status of progression disease, unbearable toxicity, withdrawal of informed consent form or discontinuation that was at the discretion of the principal investigator (see Supporting Information).
# Adverse events (AEs) in line with the version 4.0 of National Cancer Institute's Common Terminology Criteria for Adverse Events (CTCAE 4.0) were evaluated by the investigators. AEs were strictly recorded from the timepoint that ICF was obtained to 28 days after the finish of study. Imaging examinations was conducted before treatment, at the finish of the first follow‐up, and every other two follow‐ups afterward by taking the same examinations. Response of tumor was assessed based on the RECIST 1.1 guidelines. Primary assessment for antitumor response: (a) ORR, defining as the proportion of participants that achieved a complete response (CR) or a partial response (PR); (b) disease control rate (DCR), defining as the proportion of participants reached a status of CR or PR or stable disease (SD). After 4 weeks, best overall response (BOR) was confirmed.
# Patients in the ITT analysis who had complete safety records were pooled in the safety set (SS). The qualitative and quantitative data were summarized with the descriptive statistics. Efficacy was also assessed in the ITT analysis. The Kaplan‐Meier method described PFS and OS. Survival distribution differences were evaluated by the log‐rank test. […] Fisher's exact test compared the response rate in the various subgroups. Two‐sided tests were applied. […] All statistical analyses and graphs were made by the Statistical Package for Social Sciences (SPSS) 23.0 and GraphPad Prism 7.
# [2] = previously reported, cited from earlier work
# [3] = Apatinib Dose Cohort 250mg + gefitinib 250 mg, evaluable patients
# [4] = Apatinib Dose Cohort 500mg + gefitinib 250 mg, evaluable patients
# [5] = Total, both apatinib dose cohorts (n = 11)
# [6] = Apatinib 250mg, ref [1] Yu M et al., Clinical Pharmacokinetics 2017
# [7] = Apatinib 500mg, ref [2] Ding J et al., J Chromatogr B 2012
compound,measurement,setting,value
N#CC1(c2ccc(NC(=O)c3cccnc3NCc3ccncc3)cc2)CCCC1 [Apatinib],inhibitory effect on CYP3A4,CYP3A4,strong inhibitory effect
same,"CR, patients",[1]; [3],0
same,Disease Control CR+PR+SD,[1]; [3],6 (100.0) n (%)
same,Objective Response CR+PR,[1]; [3],5 (83.3) n (%)
same,"PD, patients",[1]; [3],0
same,"PR, patients",[1]; [3],5
same,"CR, patients",[1]; [4],0
same,Disease Control CR+PR+SD,[1]; [4],4 (80.0) n (%)
same,Objective Response CR+PR,[1]; [4],4 (80.0) n (%)
same,"PD, patients",[1]; [4],1
same,"PR, patients",[1]; [4],4
same,median PFS,[1]; Cohort A (apatinib 500 mg + gefitinib 250 mg),19.2 months
same,ORR,[1]; Cohort A: apatinib 500 mg + gefitinib 250 mg (4/5),80%
same,median PFS,[1]; Cohort B (apatinib 250 mg + gefitinib 250 mg),13.4 months
same,ORR,[1]; Cohort B: apatinib 250 mg + gefitinib 250 mg (5/6),83.3%
same,"CR, patients",[1]; [5],0
same,Disease Control CR+PR+SD,[1]; [5],10 (90.9) n (%)
same,Objective Response CR+PR,[1]; [5],9 (81.8) n (%)
same,"PD, patients",[1]; [5],1
same,"PR, patients",[1]; [5],9
same,DCR,[1]; apatinib 250 mg group + gefitinib 250 mg (6/6),100%
same,DCR,[1]; apatinib 500 mg group + gefitinib 250 mg (4/5),80.0%
same,AUC0-24,[2]; [6],3538 (1996-6025) ng·h/ml
same,Cmax,[2]; [6],581 (321-1216) ng/ml
same,AUC0-24,[2]; [7],11295 (70) ng·h/ml
same,Cmax,[2]; [7],1521 (75) ng/ml
same,Tmax,[2]; [7],3.5 (3-8) h

# Source: PMC7403827 (Clinical and Translational Medicine, 2020)
